Columns and labels:
[1] = test system: 4-hydroxy-2-alkylquinoline (HAQ) levels, P. aeruginosa PA14 (MvfR regulon); type: cell-based, Pseudomonas aeruginosa; settings: for activity (impacts on HAQ and pyocyanin levels), structure-activity comparison / HAQ production / HAQ inhibition: tested at 10 μM; for concentration at which compound was effective (decreased HAQ levels), as low as: among the seventeen HAQ-lowering hits; for reduction / inhibition of HAQs: very low concentrations, nanomolar range
[2] = test system: pyocyanin, an MvfR-regulated virulence factor, P. aeruginosa PA14; test: Quantification of pyocyanin (OD520nm of chloroform-extracted cultures); type: cell-based, Pseudomonas aeruginosa; settings: for pyocyanin levels: twelve of the 17 HAQ-lowering hits, vs control; for reduction / inhibition of pyocyanin: very low concentrations, nanomolar range
Description: Pyocyanin levels were determined by measuring OD520nm of chloroform-extracted cultures.
Compounds were tested at various concentrations for their impact on 4-hydroxy-2-alkylquinoline (HAQ) levels, including the MvfR ligands 4-hydroxy-2-heptylquinoline (HHQ) and 3,4-dihydroxy-2-heptylquinoline (PQS), as well as 2-n-heptyl-4-hydroxyquinoline-N-oxide (HQNO) and 2,4-dihydroxyquinoline (DHQ) (FIGS. 2A-2C). Levels of the phenazine, pyocyanin, an MvfR-regulated virulence factor, were also determined.

[3] = test system: ΔmvfR mutant constitutively expressing the pqsABCD genes; test: HAQ production in ΔmvfR mutant constitutively expressing pqsABCD (LC/MS); type: cell-based, Pseudomonas aeruginosa; settings: 100 μM inhibitor
Text: However, since these compounds diminish or abolish P. aeruginosa HAQ production, it is possible that they target either the MvfR protein itself or enzymes in the pqs operon that are required for HAQ synthesis. To further understand the target(s) of these compounds, a ΔmvfR mutant constitutively expressing the pqsABCD genes was used. This strain is capable of synthesizing HHQ, HQNO, PQS and DHQ independently of MvfR. […] Since PqsA and PqsD are necessary and sufficient for DHQ production, it is possible that these inhibitors target either PqsB or PqsC enzymes, which are required for HHQ and PQS production.

[4] = test system: Raw264.7 macrophage cells infected with PA14; test: Viability of PA14-infected macrophage cells (MTT assay); type: cell-based; settings: PA14 MOI 100, 3 h, 100 μM compound
Description: Raw264.7 macrophage cells were cultured in Dulbecco's modified eagles medium (DMEM) containing 10% FCS, 2 mM glutamine and antibiotic-antimycotic solutions. Before infections cells were washed with PBS (without Mg2+ and Ca2+) and antibiotic-free medium was used for infections. The cells were infected with PA14 and PA14 isolates grown in the presence of compounds at an MOI of 100 for 3 h at 37° C. in a 5% CO2 atmosphere. During infections cells were incubated with 100 μM of compounds as well. After 3 hours of PA14 infection, the cells were washed and incubated with DMEM medium containing polymixin B and gentamicin in order to kill the extracellular bacteria. The viability of Raw264.7 was assessed using the MTT assay, which detects the early sign of eukaryotic cell death. The formazan crystals formed in viable, metabolically active cells were dissolved by the addition of 100 μl DMSO and optical density was measured at 570 nm in a microplate reader.
In order to determine whether or not the potent inhibitors are cytotoxic in eukaryotes, Raw 264.7 macrophage cells were exposed to selected compounds. No significant cytotoxicity was observed following compound exposure for 3 hours compared to the DMSO solvent control (FIG. 6A). The cytotoxicity of the macrophage cells was also determined when infected with PA14 bacterial cells alone or in the presence of the compounds.

P. aeruginosa PA14 = test: Murine burn and infection model, M64 plus ciprofloxacin; type: in vivo, DC-1 mice; settings: IV at 6, 20, 28, 40, 60, 68 and 80 h; M64 100 μM (4 mg/Kg), ciprofloxacin 0.4 mg/Kg; 7 days; un-injected controls 30%
Description: A murine thermal injury model (Stevens et al., J Burn Care Rehabil. 1994; 15:232-235) was used as previously described to further assess bacterial pathogenicity in 6-wk-old DC-1 mice (Rahme et al., Science, 268(5219): p. 1899-902 (1995)) in the presence of combination of Ciprofloxacin (Bayer AG) and M64. Following mouse anesthetization, a full-thickness thermal burn injury involving 5%-8% of the body surface area was produced on the dermis of the shaved abdomen, and an inoculum of about 6-7×10^3 PA14 cells was injected intradermally into the burn eschar along with DMSO or 100 μM M64 compound. 100 μM (4 mg/Kg) of M64, 0.4 mg/Kg of ciprofloxacin (lower than the recommended dose of 10 mg/Kg), or a combination of M64+ciproflocaxin was also injected IV via tail vein at 6, 20, 28, 40, 60, 68 h and 80 h post-infection. Mice survival was subsequently assessed over the course of 7 days. Ten animals per treatment were used. In this set of experiments the concentration of ciprofloxacin used was lower than the therapeutic levels recommended to permit assessment of the possible synergistic effect between M64 and ciprofloxacin.

N#Cc1ccc(NC(=O)CSc2nc3ccccc3[nH]2)cc1 [Compound B1, 2-((1H-benzo[d]imidazol-2-yl)thio)-N-(4-cyanophenyl)acetamide]
activity (impacts on HAQ and pyocyanin levels), structure-activity comparison [1]: active compounds
pyocyanin levels [2]: less than half of the control
HAQ levels compared to the solvent control [3]: intermediate phenotype

CSc1cccc(NC(=O)CSc2nc3ccccc3[nH]2)c1 [Compound M4, 2-((1H-benzo[d]imidazol-2-yl)thio)-N-(3-(methylthio)phenyl)acetamide]
concentration at which compound was effective (decreased HAQ levels), as low as [1]: 10 µM
HAQ production / HAQ inhibition [1]: improved HAQ inhibition
DHQ level [3]: increased
HHQ and HQNO levels [3]: reduced

O=C(CSc1nc2ccccc2[nH]1)Nc1ccc(Cl)c(Cl)c1 [Compound M22, 2-((1H-benzo[d]imidazol-2-yl)thio)-N-(3,4-dichlorophenyl)acetamide]
activity (impacts on HAQ and pyocyanin levels), structure-activity comparison [1]: decreased the activity as compared to M26

CCc1ccc(NC(=O)CSc2nc3ccc(C)cc3[nH]2)cc1 [Compound M23, N-(4-ethylphenyl)-2-((6-methyl-1H-benzo[d]imidazol-2-yl)thio)acetamide]
activity (impacts on HAQ and pyocyanin levels), structure-activity comparison [1]: moderately active
pyocyanin levels [2]: less than half of the control
DHQ level [3]: increased
HHQ and HQNO levels [3]: reduced

COc1ccc2nc(SCC(=O)Nc3ccc(Cl)c(Cl)c3)[nH]c2c1 [Compound M24, N-(3,4-dichlorophenyl)-2-((6-methoxy-1H-benzo[d]imidazol-2-yl)thio)acetamide]
activity (impacts on HAQ and pyocyanin levels), structure-activity comparison [1]: decreased the activity

O=C(CSc1nc2ccccc2[nH]1)Nc1ccc(Cl)cc1 [Compound M26, 2-((1H-benzo[d]imidazol-2-yl)thio)-N-(4-chlorophenyl)acetamide]
concentration at which compound was effective (decreased HAQ levels), as low as [1]: 10 µM
activity (impacts on HAQ and pyocyanin levels), structure-activity comparison [1]: active compounds
pyocyanin levels [2]: less than half of the control
DHQ level [3]: increased
HHQ and HQNO levels [3]: reduced

Cc1ccc2nc(SCC(=O)Nc3ccc(Br)cc3)[nH]c2c1 [Compound M27, N-(4-bromophenyl)-2-((6-methyl-1H-benzo[d]imidazol-2-yl)thio)acetamide]
concentration at which compound was effective (decreased HAQ levels), as low as [1]: 10 µM
activity (impacts on HAQ and pyocyanin levels), structure-activity comparison [1]: more active than M55
pyocyanin levels [2]: less than half of the control
DHQ level [3]: increased
HHQ and HQNO levels [3]: reduced
reduction of PA14-induced cytotoxicity [4]: effectively reduced cytotoxicity

COc1ccc(NC(=O)CSc2nc3ccc([N+](=O)[O-])cc3[nH]2)c(OC)c1 [Compound M34, N-(2,4-dimethoxyphenyl)-2-((6-nitro-1H-benzo[d]imidazol-2-yl)thio)acetamide]
concentration at which compound was effective (decreased HAQ levels), as low as [1]: 10 µM
activity (impacts on HAQ and pyocyanin levels), structure-activity comparison [1]: quite active
pyocyanin levels [2]: less than half of the control
HAQ levels compared to the solvent control [3]: do not significantly alter HAQ levels

O=C(CSc1nc2ccccc2[nH]1)Nc1ccc([N+](=O)[O-])cc1 [Compound M45, 2-((1H-benzo[d]imidazol-2-yl)thio)-N-(4-nitrophenyl)acetamide]
activity (impacts on HAQ and pyocyanin levels), structure-activity comparison [1]: did not improve the activity

COc1ccccc1NC(=O)CSc1nc2ccccc2[nH]1 [Compound M46, 2-((1H-benzo[d]imidazol-2-yl)thio)-N-(2-methoxyphenyl)acetamide]
activity (impacts on HAQ and pyocyanin levels), structure-activity comparison [1]: did not improve the activity

CC(C)c1ccc(NC(=O)CSc2nc3ccccc3[nH]2)cc1 [Compound M49, 2-((1H-benzo[d]imidazol-2-yl)thio)-N-(4-isopropylphenyl)acetamide]
activity (impacts on HAQ and pyocyanin levels), structure-activity comparison [1]: more active compound

O=C(CSc1nc2ccc([N+](=O)[O-])cc2[nH]1)Nc1ccc(Br)cc1 [Compound M50, N-(4-bromophenyl)-2-((6-nitro-1H-benzo[d]imidazol-2-yl)thio)acetamide]
activity (impacts on HAQ and pyocyanin levels), structure-activity comparison [1]: most active
reduction / inhibition of HAQs [1]: considerably inhibited
reduction / inhibition of pyocyanin [2]: considerably inhibited
HAQ levels compared to the solvent control [3]: do not significantly alter HAQ levels
reduction of PA14-induced cytotoxicity [4]: effectively reduced cytotoxicity

O=C(CSc1nc2ccc([N+](=O)[O-])cc2[nH]1)Nc1ccc(Cl)cc1 [Compound M51, N-(4-chlorophenyl)-2-((6-nitro-1H-benzo[d]imidazol-2-yl)thio)acetamide]
activity (impacts on HAQ and pyocyanin levels), structure-activity comparison [1]: most active
HAQ levels compared to the solvent control [3]: intermediate phenotype

COc1ccccc1NC(=O)CSc1nc2ccc([N+](=O)[O-])cc2[nH]1 [Compound M53, N-(2-methoxyphenyl)-2-((6-nitro-1H-benzo[d]imidazol-2-yl)thio)acetamide]
activity (impacts on HAQ and pyocyanin levels), structure-activity comparison [1]: not very active
HAQ levels compared to the solvent control [3]: do not significantly alter HAQ levels

O=C(CSc1nc2ccccc2[nH]1)Nc1ccc(Br)cc1 [Compound M55, 2-((1H-benzo[d]imidazol-2-yl)thio)-N-(4-bromophenyl)acetamide]
activity (impacts on HAQ and pyocyanin levels), structure-activity comparison [1]: active compounds
DHQ level [3]: increased
HHQ and HQNO levels [3]: reduced

O=C(CSc1nc2ccccc2[nH]1)Nc1ccccc1 [Compound M56, 2-((1H-benzo[d]imidazol-2-yl)thio)-N-phenylacetamide]
HAQ production / HAQ inhibition [1]: little impact
pyocyanin production ([2]; tested at 10 μM): little impact

O=C(CSc1nc2ccc([N+](=O)[O-])cc2[nH]1)Nc1ccc(OC(F)(F)F)cc1 [Compound M58, 2-((6-nitro-1H-benzo[d]imidazol-2-yl)thio)-N-(4-(trifluoromethoxy)phenyl)acetamide]
activity (impacts on HAQ and pyocyanin levels), structure-activity comparison [1]: most active
HAQ levels compared to the solvent control [3]: intermediate phenotype

O=C(CSc1nc2ccc([N+](=O)[O-])cc2[nH]1)Nc1ccc(I)cc1 [Compound M59, N-(4-iodophenyl)-2-((6-nitro-1H-benzo[d]imidazol-2-yl)thio)acetamide]
activity (impacts on HAQ and pyocyanin levels), structure-activity comparison [1]: most active
reduction / inhibition of HAQs [1]: considerably inhibited
reduction / inhibition of pyocyanin [2]: considerably inhibited
HAQ levels compared to the solvent control [3]: intermediate phenotype

COc1ccc(NC(=O)CSc2nc3ccc([N+](=O)[O-])cc3[nH]2)cc1 [Compound M61, N-(4-methoxyphenyl)-2-((6-nitro-1H-benzo[d]imidazol-2-yl)thio)acetamide]
activity (impacts on HAQ and pyocyanin levels), structure-activity comparison [1]: most active
HAQ levels compared to the solvent control [3]: do not significantly alter HAQ levels

N#Cc1ccc(NC(=O)CSc2nc3ccc([N+](=O)[O-])cc3[nH]2)cc1 [Compound M62, N-(4-cyanophenyl)-2-((6-nitro-1H-benzo[d]imidazol-2-yl)thio)acetamide]
activity (impacts on HAQ and pyocyanin levels), structure-activity comparison [1]: most active
HAQ levels compared to the solvent control [3]: do not significantly alter HAQ levels
reduction of PA14-induced cytotoxicity [4]: effectively reduced cytotoxicity

O=C(CSc1nc2ccc(NC(=O)C(F)(F)F)cc2[nH]1)Nc1ccc(I)cc1 [Compound M63, 2,2,2-trifluoro-N-(2-((2-((4-iodophenyl)amino)-2-oxoethyl)thio)-1H-benzo[d]imidazol-6-yl)acetamide]
activity (impacts on HAQ and pyocyanin levels), structure-activity comparison [1]: inactive

CC(=O)Nc1ccc2nc(SCC(=O)Nc3ccc(I)cc3)[nH]c2c1 [Compound M65, 2-((6-acetamido-1H-benzo[d]imidazol-2-yl)thio)-N-(4-iodophenyl)acetamide]
activity (impacts on HAQ and pyocyanin levels), structure-activity comparison [1]: inactive

O=C(O)c1cn(C2CC2)c2cc(N3CCNCC3)c(F)cc2c1=O [ciprofloxacin, reference compound]
survival rate (P. aeruginosa PA14): 80%

Reference: US8877940B2, “Antibiotic tolerance inhibitors” (Institut National de la Recherche Scientifique, priority 2011, dated 2014)
